# According to ChEMBL document CHEMBL1152981 (J Med Chem, 2009):
# Active and inactive are the calls of the source. The calls are words filed in the database; no cut-off is given here.
# Experiments:
# [1] = target: Glutamate NMDA receptor; assay: Displacement of [3H]glycine from strychnine-insensitive glycine recognition site of NMDA receptor in rat brain cortex membrane; type: cell membranes
# [2] = target: Glutamate NMDA receptor; assay: Displacement of [3H]CGP39653 from glutamate recognition site of NMDA receptor in rat brain cortex membrane in presence of glycine antagonist 5,7-dichlorokynurenic acid; type: cell membranes
# [3] = Partial agonist activity at glycine site of NMDA receptor in rat brain cortex membrane assessed as potentiation of [3H]Mk-801 binding by liquid scintillation counting; type: cell membranes
# [4] = target: T1, Glutamate NMDA receptor (Rattus norvegicus) (UniProt P35439+Q00959+Q00960+Q00961+Q62645+Q8VHN2+Q9R1M7); assay: Displacement of [3H]MK-801 from ion channel site of NMDA receptor in rat brain cortex membrane; type: cell membranes
# [5] = target: T1, Glutamate NMDA receptor (Rattus norvegicus); assay: Displacement of [3H]spermidine from polyamine site of NMDA receptor in rat brain cortex membrane; type: cell membranes
# [6] = target: T1, Glutamate NMDA receptor (Rattus norvegicus); assay: Antagonist activity at glycine site of NMDA receptor in rat brain cortex membrane assessed as inhibition of [3H]Mk-801 binding by liquid scintillation counting in presence of antagonist 5,7-dichlorokynurenic acid
# [7] = target: T1, Glutamate NMDA receptor (Rattus norvegicus); assay: Displacement of [3H]glycine from strychnine-insensitive glycine recognition site of NMDA receptor in rat brain cortex membrane at 3 uM; type: cell membranes
Compound,pKi [1],pKi [2],further results
CCc1ccccc1-c1cccc2cc(C(=O)NCC(N)C(=O)O)ccc12 (racemic),5.7,4.5,–
CCc1ccccc1-c1cccc2[nH]c(C(=O)NCC(N)C(=O)O)cc12 (racemic),7.5,4.9,–
CCc1ccccc1-c1cccc2c1cc(C(=O)NCC(N)C(=O)O)n2C (racemic),3.9,–,–
Cc1ccccc1-c1cccc2[nH]c(C(=O)NCC(N)C(=O)O)cc12 (racemic),6.5,5.2,pEC50 [3]: 6.9
NC1(C(=O)O)CCC1 [1-AMINOCYCLOBUTANE CARBOXYLIC ACID],4.8,–,–
CCNC(=O)NCC(N)C(=O)O (racemic),< 4,–,–
C[C@@H]1CN(O)C(=O)[C@@H]1N (relative stereo),–,–,Activity [6]: Active
CCC/C=C/[C@H](N)C(=O)O,5.4,–,–
NC(CNC(=O)c1ccc2ccccc2n1)C(=O)O (racemic),5.6,< 4,–
CCc1ccccc1-c1cccc2[nH]c(C(=O)NC[C@@H](N)C(=O)O)cc12,7.6,5.4,pEC50 [3]: 7.7; Activity [4]: inactive; Activity [5]: inactive
COC(=O)NCC(N)C(=O)O (racemic),4.1,–,–
COc1ccccc1-c1cccc2[nH]c(C(=O)NCC(N)C(=O)O)cc12 (racemic),5.6,4.3,–
C[C@@H](N)C(=O)O [D-ALANINE],6.2,–,–
NC(C(=O)O)C1CC1 (stereo not given),< 4,–,–
NC1(C(=O)O)CC1 [1-Aminocyclopropane carboxylic acid],6.8,–,–
CC[C@@H](N)C(=O)O,< 4,–,–
NC1(C(=O)O)CCCCC1,< 3,–,–

Compound,pKi [1],pKi [2],further results
CC(C)c1ccccc1-c1cccc2[nH]c(C(=O)NCC(N)C(=O)O)cc12 (racemic),7.3,5.6,–
CC(N)(CO)C(=O)O (stereo not given),< 4,–,–
CC(O)[C@@H](N)C(=O)O (stereo not given in full),–,–,Activity [7]: inactive
CCc1ccccc1-c1ccc(Cl)c2[nH]c(C(=O)NCC(N)C(=O)O)cc12 (racemic),6.9,< 4.5,–
NC(CNC(=O)c1cc2c(-c3ccccc3)cccc2[nH]1)C(=O)O (racemic),5.6,4.7,–
C=CC[C@@H](N)C(=O)O,< 4,–,–
CCCc1c(C(=O)NCC(N)C(=O)O)[nH]c2cccc(Br)c12 (racemic),6.5,4.2,pA2 [3]: 6
COC[C@@H](N)C(=O)O,–,–,Activity [7]: inactive
NC(CNC(=O)Cc1c[nH]c2ccccc12)C(=O)O (racemic),< 4,–,–
N[C@@H](/C=C/CCO)C(=O)O,6.6,–,–
CCCc1ccccc1-c1cccc2[nH]c(C(=O)NCC(N)C(=O)O)cc12 (racemic),7.3,5.4,pEC50 [3]: 7.6
NC(CNC(=O)c1cc2c(-c3ccccc3Cc3ccccc3)cccc2[nH]1)C(=O)O (racemic),6,< 5.5,pEC50 [3]: 6.5
NC(CNC(=O)C1Cc2ccccc2C1)C(=O)O (racemic),< 4,–,–
CCCc1c(C(=O)NCC(N)C(=O)O)[nH]c2cccc(-c3ccccc3CC)c12 (racemic),6.8,5.3,–
CN(C)c1ccccc1-c1cccc2[nH]c(C(=O)NCC(N)C(=O)O)cc12 (racemic),5.8,4.1,pEC50 [3]: 6.5
NC1(C(=O)O)CCCC1 [CYCLOLEUCINE],2.7,–,–
CCCCCC/C=C/[C@H](N)C(=O)O,5.9,–,–

# Continued, in another order:
pKi [1],pKi [2],Compound,further results
7,4.6,N[C@H](CNC(=O)c1cc2c(Br)cccc2[nH]1)C(=O)O,pEC50 [3]: 6.6; Activity [4]: inactive; Activity [5]: inactive
6.8,4,NC(CNC(=O)c1cc2c(Cl)ccc(Cl)c2[nH]1)C(=O)O (racemic),pA2 [3]: 6.2
5.5,–,Cc1c(C(=O)NCC(N)C(=O)O)[nH]c2ccccc12 (racemic),–
5.9,< 4,NC(CNC(=O)c1cccc2ccccc12)C(=O)O (racemic),–
6.8,4.7,NC(CNC(=O)c1cc2c(Br)cccc2[nH]1)C(=O)O (racemic),–
5.9,< 4,N#Cc1cccc2sc(C(=O)NCC(N)C(=O)O)cc12 (racemic),pA2 [3]: 5.5; Activity [4]: inactive; Activity [5]: inactive
6,4.1,NC(CNC(=O)c1cc2c(Cl)cccc2[nH]1)C(=O)O (racemic),–
5.9,4.1,COc1cccc2[nH]c(C(=O)NCC(N)C(=O)O)cc12 (racemic),–
6.2,3.9,CCc1ccccc1-c1cccc2sc(C(=O)NCC(N)C(=O)O)cc12 (racemic),Activity [4]: inactive; Activity [5]: inactive
4.9,–,Cn1c(C(=O)NCC(N)C(=O)O)cc2ccccc21 (racemic),–
4.7,< 4.5,NC(CNC(=O)c1cc2c(-c3ccc(Cl)cc3Cl)cccc2s1)C(=O)O (racemic),pA2 [3]: 5.1; Activity [4]: inactive; Activity [5]: inactive
6.3,3.8,CCCc1c(C(=O)NCC(N)C(=O)O)[nH]c2ccccc12 (racemic),pA2 [3]: 5.7; Activity [4]: inactive; Activity [5]: inactive
6.1,4.9,NC(CNC(=O)c1[nH]c2cccc(Br)c2c1[N+](=O)[O-])C(=O)O (racemic),–
4.9,–,NC(CNC(=O)c1ccc[nH]1)C(=O)O (racemic),pEC50 [3]: 5; Activity [4]: inactive; Activity [5]: inactive
4.9,–,NC(CNC(=O)c1cc2ccc(Cl)cc2[nH]1)C(=O)O (racemic),–
4.4,–,NC(CNC(=O)c1ccccn1)C(=O)O (racemic),–
6.4,< 4,NC(CNC(=O)c1cc2c(Br)cccc2s1)C(=O)O (racemic),Activity [4]: inactive; Activity [5]: inactive
5.2,< 4,NC(CNC(=O)c1cc2ccccc2o1)C(=O)O (racemic),–
4.9,–,NC(CNC(=O)c1ccco1)C(=O)O (racemic),pEC50 [3]: 5.1; Activity [4]: inactive; Activity [5]: inactive
5.4,–,NC(CNC(=O)c1c[nH]c2ccccc12)C(=O)O (racemic),Activity [4]: inactive; Activity [5]: inactive
6.6,4.3,NC(CNC(=O)c1ccc2c(Br)cccc2c1)C(=O)O (racemic),–
4.7,–,NC(CNC(=O)c1cc2cc(Cl)ccc2[nH]1)C(=O)O (racemic),–
5.5,–,NC(CNC(=O)c1cc2cccc(Cl)c2[nH]1)C(=O)O (racemic),–
< 4,–,N[C@@H](CNC(=O)c1cc2ccccc2[nH]1)C(=O)O,–
5.3,3.8,N[C@H](CNC(=O)c1cc2ccccc2[nH]1)C(=O)O,pEC50 [3]: 5.3; Activity [4]: inactive; Activity [5]: inactive
6.5,< 4,NC(CNC(=O)c1cc2c(Cl)cccc2s1)C(=O)O (racemic),–
5.9,< 4,NC(CNC(=O)c1ccc2ccccc2c1)C(=O)O (racemic),Activity [4]: inactive; Activity [5]: inactive
5,–,Cn1c(C(=O)NCC(N)C(=O)O)cc2c(Br)cccc21 (racemic),–
5.5,< 4,NC(CNC(=O)C1=Cc2ccccc2C1)C(=O)O (racemic),–
4.3,< 4,NC(CNC(=O)Cc1c[nH]c2cccc(Br)c12)C(=O)O (racemic),–
